From PubChem BioAssay (NCI)
Several values for one entry are separate records, joined by “and”; a condition that tells them apart may be missing. Equal entries are not always repeated.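 Exposure lasted 48 hours, with cells grown in 96-well plates and compounds tested at five concentrations. GI50 = concentration required for 50% inhibition of growth. TGI is the concentration that stops growth completely.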

Tests used:
Test in all cases: NCI anticancer screen, dose series, 48 h
CAKI-1 renal = system: CAKI-1 renal
EKVX NSCLC = system: EKVX NSCLC
HCT-116 colon = system: HCT-116 colon
HT29 colon = system: HT29 colon
K-562 leukemia = system: K-562 leukemia
MCF7 breast = system: MCF7 breast
MDA-MB-435 = system: MDA-MB-435
NCI-H522 lung = system: NCI-H522 lung
SF-539 CNS = system: SF-539 CNS
TK-10 renal = system: TK-10 renal

| SMILES | GI50 (CAKI-1 renal) | TGI (CAKI-1 renal) | GI50 (EKVX NSCLC) | TGI (EKVX NSCLC) [µM] | GI50 (HCT-116 colon) | TGI (HCT-116 colon) [µM] | GI50 (HT29 colon) | TGI (HT29 colon) | GI50 (K-562 leukemia) | TGI (K-562 leukemia) [µM] | GI50 (MCF7 breast) | TGI (MCF7 breast) | GI50 (MDA-MB-435) | TGI (MDA-MB-435) | GI50 (NCI-H522 lung) | TGI (NCI-H522 lung) | GI50 (SF-539 CNS) | TGI (SF-539 CNS) | GI50 (TK-10 renal) | TGI (TK-10 renal) |
| --- | --- | --- | --- | --- | --- | --- | --- | --- | --- | --- | --- | --- | --- | --- | --- | --- | --- | --- | --- | --- |
| c1ccc(-c2cn(-c3ccccc3)c(-c3ccccc3)n2)cc1 | 17.4 µM | 31.6 µM | 15.1 µM | 28.9 | 1.76 µM | 3.27 | 4.79 µM | 20.4 µM | 3.54 µM | 18.7 | 1.59 µM | 5.76 µM | 7.58 µM | 24.7 µM | 13.3 µM | 27.2 µM | 14.2 µM | 27.9 µM | 14.7 µM | 30.9 µM |
| COc1cc2c3c(n(CCCN4CCCNCC4)c(=O)c2cc1OC)-c1cc2c(cc1C3=O)OCO2 | 0.12 µM | 1.65 µM | 7.6 µM | 15.5 | 0.282 µM | 2.3 | 1.15 µM | 17.6 µM | 0.476 µM | 18.5 | 0.138 µM | 6.29 µM | 2.58 µM | 13.7 µM | 1.87 µM | 24.8 µM | 0.29 µM | 1.37 µM | 1.35 µM | 7.54 µM |
| O=C(O)c1ccc(Oc2nc3ccccc3s2)cc1 | – | > 100 µM | – | > 100 | – | > 100 | – | > 100 µM | – | > 100 | – | > 100 µM | – | > 100 µM | – | > 100 µM | – | > 100 µM | – | > 100 µM |
| CCN1C(=O)N(CC)C2C1NC(=S)N2/N=C/C=C/c1ccccc1OC (stereo not drawn) | 0.0514 µM | > 100 µM | 0.0532 µM | > 100 | < 0.0182 µM | > 55.9 | 0.0361 µM | > 100 µM | 0.0276 µM | > 100 | 0.0406 µM | > 100 µM | 0.0189 µM | 0.0539 µM | 0.0253 µM | – | 0.0228 µM | 0.0771 µM | 30.9 µM | > 100 µM |
| NC(=N\N=C/c1ccc(Cl)cc1Cl)/C(N)=N\N=C/c1ccc(Cl)cc1Cl | 16.3 µM | > 100 µM | 30.7 µM | > 100 | 1.19 µM | > 100 | > 100 µM | > 100 µM | 63.1 µM | > 100 | > 73.8 µM | > 100 µM | > 100 µM | > 100 µM | 63 µM | > 100 µM | 8.3 µM | > 100 µM | 1.25 µM | 16.7 µM |
| C=C(CN1CCN(c2ccccc2C(F)(F)F)CC1)c1ccc(C(=O)Nc2ccccc2N)cc1 | 7.97 µM | > 51.4 µM | 6.7 µM | > 100 | 3.09 µM | 16.3 | 4.09 µM | 20.2 µM | 1.54 µM | > 25.8 | 4.48 µM | 37.1 µM | 2.72 µM | > 22.6 µM | 1.91 µM | > 28.1 µM | 3.27 µM | 41.7 µM | 4.63 µM | > 67.7 µM |
| O=C(/C=C/c1cccc(S(=O)(=O)Nc2ccccc2)c1)NO | 0.401 µM and 0.462 µM | 2.48 µM and 1.86 µM | 1.13 µM and 0.409 µM | > 100 | 0.206 µM and 0.0391 µM | 1.18 | 0.25 µM and 1.15 µM | 15.9 µM and > 15.8 µM | 0.325 µM and 0.0593 µM | > 100 | 0.384 µM and 0.157 µM | > 100 µM and 10.4 µM | 0.29 µM and 0.194 µM | 3.48 µM and 2.07 µM | 0.191 µM and 0.0603 µM | 1.98 µM and 17.2 µM | 0.696 µM and 0.13 µM | 20.9 µM and 23.9 µM | 0.215 µM and 0.024 µM | 3.19 µM and 1.73 µM |
| CS(=N)(=O)CCC(N)P(=O)(O)O (stereo not drawn) | – | > 100 µM | – | > 100 | – | > 100 | – | > 100 µM | – | > 100 | – | > 100 µM | – | > 100 µM | – | > 100 µM | – | > 100 µM | – | > 100 µM |
| CCOc1cc(/C=C/C(=O)C(C(=O)/C=C/c2ccc(OC(=O)CNc3nnc(C)s3)c(OCC)c2)C(=O)CNc2nnc(C)s2)ccc1OC(=O)CNc1nnc(C)s1 | 2.8 µM | > 29 µM | 3 µM | 15.2 | 0.952 µM | 4.42 | 0.515 µM | 1.85 µM | 0.352 µM | > 100 | 0.317 µM | 2.28 µM | 1.53 µM | 8.7 µM | 2.03 µM | 5.71 µM | 1.17 µM | 3.42 µM | 3.49 µM | 14.4 µM |
| COc1ccc(C2CC(c3ccc4ccccc4c3)=NN2c2nc(O)c(C3=c4cc(OC)ccc4=NC3=O)s2)cc1 (stereo not drawn) | 0.349 µM | – | 0.0898 µM | 0.355 | 0.243 µM | 0.66 | 0.0458 µM | > 100 µM | 0.0662 µM | > 32.3 | 0.0315 µM | 0.75 µM | 0.0351 µM | 0.134 µM | 0.0519 µM | 0.154 µM | 0.741 µM | 4.34 µM | 0.0905 µM | 0.371 µM |
| O=C(Nc1ccc(I)cc1)c1cccc([N+](=O)[O-])c1O | 2.91 µM | > 100 µM | 2.59 µM | > 100 | 3.11 µM | 13.8 | 4.84 µM | > 100 µM | 2.64 µM | > 100 | 2.76 µM | > 100 µM | 3.07 µM | > 100 µM | 2.61 µM | 31.1 µM | 4.85 µM | > 100 µM | 3.56 µM | > 100 µM |
